Data: ChEMBL document CHEMBL4130490, “Discovery of Benzo[g]quinazolin benzenesulfonamide derivatives as dual EGFR/HER2 inhibitors” (Eur J Med Chem, 2017)

Tests used:
A549 [1] = assay: Cytotoxicity against human A549 cells after 24 hrs by MTT assay; format: functional, cell-based; settings: A549, 24 h
A549 [2] = assay: Induction of apoptosis in human A549 cells assessed as increase in active caspase-3 level by immunoassay relative to control; format: functional
[3] = target: Receptor tyrosine-protein kinase erbB-2 (Homo sapiens, UniProt P04626); assay: Inhibition of recombinant human His-tagged HER2 cytoplasmic domain (676 to 1255 residues) expressed in baculovirus virus expression system after 1 hr by ELISA
[4] = target: Epidermal growth factor receptor (Homo sapiens, UniProt P00533); assay: Inhibition of recombinant human GST-tagged EGFR cytoplasmic domain (668 to 1210 residues) expressed in baculovirus virus expression system after 1 hr by ELISA
Chain of Epidermal growth factor receptor (P00533 whole entry, the tested form may be a part): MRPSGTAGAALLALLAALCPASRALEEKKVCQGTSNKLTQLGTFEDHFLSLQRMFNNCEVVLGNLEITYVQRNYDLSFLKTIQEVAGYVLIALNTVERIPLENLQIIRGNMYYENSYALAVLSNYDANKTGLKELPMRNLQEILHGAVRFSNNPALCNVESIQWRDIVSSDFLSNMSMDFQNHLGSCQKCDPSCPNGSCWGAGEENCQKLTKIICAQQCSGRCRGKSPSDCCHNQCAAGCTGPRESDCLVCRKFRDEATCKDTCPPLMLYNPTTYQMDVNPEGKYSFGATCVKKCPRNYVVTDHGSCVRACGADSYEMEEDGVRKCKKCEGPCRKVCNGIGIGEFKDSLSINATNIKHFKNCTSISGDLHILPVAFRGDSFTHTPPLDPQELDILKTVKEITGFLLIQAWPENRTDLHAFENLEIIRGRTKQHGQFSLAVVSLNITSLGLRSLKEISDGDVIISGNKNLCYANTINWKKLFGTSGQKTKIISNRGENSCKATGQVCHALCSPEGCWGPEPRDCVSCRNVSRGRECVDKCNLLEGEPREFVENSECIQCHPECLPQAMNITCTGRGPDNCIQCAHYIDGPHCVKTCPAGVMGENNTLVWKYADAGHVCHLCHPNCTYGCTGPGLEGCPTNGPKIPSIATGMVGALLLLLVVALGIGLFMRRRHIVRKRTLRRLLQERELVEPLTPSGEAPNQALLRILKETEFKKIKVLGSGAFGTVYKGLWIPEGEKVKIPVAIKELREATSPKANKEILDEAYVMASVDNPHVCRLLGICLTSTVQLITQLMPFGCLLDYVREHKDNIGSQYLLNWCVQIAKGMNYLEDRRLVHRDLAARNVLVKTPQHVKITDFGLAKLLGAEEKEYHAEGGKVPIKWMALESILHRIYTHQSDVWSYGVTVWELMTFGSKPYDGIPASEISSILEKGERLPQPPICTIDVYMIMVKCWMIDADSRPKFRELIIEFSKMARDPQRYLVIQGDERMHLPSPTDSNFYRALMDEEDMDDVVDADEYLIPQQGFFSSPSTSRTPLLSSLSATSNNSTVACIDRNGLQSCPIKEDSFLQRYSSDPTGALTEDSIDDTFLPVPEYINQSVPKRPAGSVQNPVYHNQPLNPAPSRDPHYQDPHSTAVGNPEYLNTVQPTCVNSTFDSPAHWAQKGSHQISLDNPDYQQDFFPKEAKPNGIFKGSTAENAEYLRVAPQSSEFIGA

Chain of Receptor tyrosine-protein kinase erbB-2 (P04626 whole entry, the tested form may be a part): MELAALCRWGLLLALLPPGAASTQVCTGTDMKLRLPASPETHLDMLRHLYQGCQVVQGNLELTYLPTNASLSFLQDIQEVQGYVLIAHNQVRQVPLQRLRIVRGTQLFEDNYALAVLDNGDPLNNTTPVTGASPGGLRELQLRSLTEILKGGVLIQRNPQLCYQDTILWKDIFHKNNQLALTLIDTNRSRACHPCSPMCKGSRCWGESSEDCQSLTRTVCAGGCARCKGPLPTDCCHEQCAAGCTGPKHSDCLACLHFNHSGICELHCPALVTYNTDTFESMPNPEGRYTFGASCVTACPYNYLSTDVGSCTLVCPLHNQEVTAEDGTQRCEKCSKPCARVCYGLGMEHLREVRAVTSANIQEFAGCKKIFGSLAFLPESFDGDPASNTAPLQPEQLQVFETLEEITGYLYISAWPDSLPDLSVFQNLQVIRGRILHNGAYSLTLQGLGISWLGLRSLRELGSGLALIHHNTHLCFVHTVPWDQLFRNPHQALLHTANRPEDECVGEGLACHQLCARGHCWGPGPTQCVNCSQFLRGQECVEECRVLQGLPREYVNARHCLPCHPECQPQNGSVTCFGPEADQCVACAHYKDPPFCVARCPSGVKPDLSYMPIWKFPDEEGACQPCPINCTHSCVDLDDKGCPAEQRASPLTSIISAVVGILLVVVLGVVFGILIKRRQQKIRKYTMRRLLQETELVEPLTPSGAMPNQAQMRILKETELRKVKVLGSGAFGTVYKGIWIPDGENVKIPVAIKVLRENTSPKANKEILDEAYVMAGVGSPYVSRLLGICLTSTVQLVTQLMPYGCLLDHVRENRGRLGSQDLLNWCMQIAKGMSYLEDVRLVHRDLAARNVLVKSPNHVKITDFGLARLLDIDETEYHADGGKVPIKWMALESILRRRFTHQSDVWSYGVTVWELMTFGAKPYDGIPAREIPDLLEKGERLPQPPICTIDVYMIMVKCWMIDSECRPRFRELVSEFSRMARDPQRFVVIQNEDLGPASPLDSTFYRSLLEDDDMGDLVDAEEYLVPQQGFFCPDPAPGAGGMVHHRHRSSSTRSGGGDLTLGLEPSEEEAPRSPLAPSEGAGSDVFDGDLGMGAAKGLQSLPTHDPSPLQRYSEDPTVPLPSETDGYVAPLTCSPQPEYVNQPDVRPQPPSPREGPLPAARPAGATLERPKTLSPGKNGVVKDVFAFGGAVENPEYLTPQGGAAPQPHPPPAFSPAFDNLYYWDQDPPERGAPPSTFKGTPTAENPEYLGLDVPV

| SMILES | IC50 (A549 [1]) [nM] | fold change (FC) (A549 [2]) | IC50 [3] [nM] | IC50 [4] [nM] |
| --- | --- | --- | --- | --- |
| NS(=O)(=O)c1ccc(-n2c(SCC(=O)Nc3cc(Cl)c(Cl)cc3Cl)nc3cc4ccccc4cc3c2=O)cc1 | 290 | 6.28 | 760 |  |
| NS(=O)(=O)c1ccc(-n2c(SCC(=O)Nc3ccc(Br)cc3)nc3cc4ccccc4cc3c2=O)cc1 | 8700 |  |  |  |
| NS(=O)(=O)c1ccc(-n2c(SCC(=O)Nc3ccccc3Cl)nc3cc4ccccc4cc3c2=O)cc1 | 1160 |  |  |  |
| NS(=O)(=O)c1ccc(-n2c(SCC(=O)Nc3ccc(Cl)cn3)nc3cc4ccccc4cc3c2=O)cc1 | 1020 |  |  |  |
| NS(=O)(=O)c1ccc(-n2c(SCC(=O)Nc3ccncc3)nc3cc4ccccc4cc3c2=O)cc1 | 500 |  |  |  |
| NS(=O)(=O)c1ccc(-n2c(SCC(=O)Nc3ccc(Br)cc3Br)nc3cc4ccccc4cc3c2=O)cc1 | 1500 |  |  |  |
| NS(=O)(=O)c1ccc(-n2c(SCC(=O)Nc3c(Cl)cc(Cl)cc3Cl)nc3cc4ccccc4cc3c2=O)cc1 | 1070 |  |  |  |
| NS(=O)(=O)c1ccc(-n2c(SCC(=O)Nc3ccccn3)nc3cc4ccccc4cc3c2=O)cc1 | 3520 |  |  |  |
| NS(=O)(=O)c1ccc(-n2c(SCC(=O)NCc3ccc4c(c3)OCO4)nc3cc4ccccc4cc3c2=O)cc1 | 1360 |  |  |  |
| Cc1cccc([N+](=O)[O-])c1NC(=O)CSc1nc2cc3ccccc3cc2c(=O)n1-c1ccc(S(N)(=O)=O)cc1 | 1480 |  |  |  |
| NS(=O)(=O)c1ccc(-n2c(SCC(=O)Nc3cccnc3Cl)nc3cc4ccccc4cc3c2=O)cc1 | 670 |  |  |  |
| NS(=O)(=O)c1ccc(-n2c(SCC(=O)Nc3ccc([N+](=O)[O-])cc3[N+](=O)[O-])nc3cc4ccccc4cc3c2=O)cc1 | 280 | 9.35 | 300 | 60 |
| NS(=O)(=O)c1ccc(-n2c(SCC(=O)Nc3ccc(I)cc3)nc3cc4ccccc4cc3c2=O)cc1 | 2530 |  |  |  |
| NS(=O)(=O)c1ccc(-n2c(SCC(=O)Nc3cnc4ccccc4c3)nc3cc4ccccc4cc3c2=O)cc1 | 120 | 8.49 | 390 | 110 |
| NS(=O)(=O)c1ccc(-n2c(SCC(=O)Nc3cccnc3)nc3cc4ccccc4cc3c2=O)cc1 | 490 |  |  |  |
